From patent US11633370B2, “Use of scavengers of reactive gamma-ketoaldehydes to extend cell lifespan and healthspan” (Vanderbilt University, priority 2016, dated 2023)

What was measured:
N2 WT C. elegans [1] = test: F3-IsoP quantification by GC/MS, N2; type: in vivo; conditions: Day 1 of adulthood until Day 15
Excerpt: One of the major stimuli for activation of sirtuins is oxidative stress. […] Indeed, the mitochondrial antioxidant manganese superoxide dismutase (MnSOD) has been identified as one of the major protein targets that is deacetylated by sirtuin isoforms, with deacetylation enhancing the enzymatic activity of MnSOD [60]. If SA indeed preserves SIR-2.1 enzymatic function in vivo, the present inventors hypothesized that SA treatment would dose-dependently decrease biomarkers of oxidant injury in a SIR-2.1-dependent manner. To quantify oxidant injury, the present inventors measured F3-isoprostanes (F3-IsoPs). […] To further characterize SA's ability to preserve SIR-2.1 function, the present inventors assessed acetylation of MnSOD at Lys 122.
F3-Isoprostanes were quantified from SA-treated worms a gas-chromatography-negative ion chemical ionization-mass spectrometry (GC-NICI-MS) approach. […]
Samples were spiked with 248 pg of deuterated internal standards, [^2H4]-15-F2t-IsoP, quantified and calibrated by the method of Milne et al. and acidified to pH<3 with HCl in preparation for further Separation Phase Extraction (SPE). […]
Eluates were dried under nitrogen and F3—IsoPs and resuspended in MeOH for separation by Thin Layer Chromatography (TLC). […] Deuterated F2-IsoP standard was measured at m/z 573. F3—IsoP was measured at m/z 567. […]

N2 WT C. elegans [2] = test: Real-time RT-PCR (TaqMan) gene expression, N2; type: in vivo; conditions: p<0.05
Excerpt: First, to validate the microarray results, the present inventors performed real-time RT-PCR on four genes, siah-1, sma-4, F13D12.6, and ets-7 (FIG. 6B). […] Messenger RNA levels for siah-1 and sma-4 were decreased by nearly 25%, as well as F13D12.6 and ets-7 were increased by nearly 25% by SA administration (p<0.05). Pathway Analysis using Gene Ontology (GO) with WEB-based Gene SeT Analysis Toolkit (WEBGESTALT <http://bioinfo.vanderbilt.edu/webgestalt/>) highlighted the metabolic process, lipid metabolic process, proteolysis pathways among many others as being altered favorably by the administration of SA (see Supplemental Data). From the array data confirmed by RT-PCR, the present inventors identified the ETS class transcription factor ETS-7 as a protein of interest. ETS factors are known to be involved in regulating lipid metabolism and regulate lifespan in both Drosophila melanogaster and C. elegans. To investigate the role of ETS-7 in regulating lifespan downstream from salicylamine, SA was administered to the ets-7 gene knock-out strain, RB981 [F19F10.5(ok888) V]). […] The present inventors originally hypothesized that upregulation of ets-7 depends on SIR-2.1, which could result in enhanced longevity. In order to test this, the present inventors carried out real-time RT-PCR quantification of ets-7 in non-functional SIR-2.1 mutant nematodes treated with increasing doses of SA (FIG. 6E).
Total RNA was isolated via the Trizol method, as described previously. Following isolation, 2 μg total RNA was used for cDNA synthesis using the High Capacity cDNA Reverse Transcription Kit (Life Technologies), per manufacturer's instructions. Quantitative real time PCR (Bio-Rad) was conducted using TaqMan Gene Expression Assay Probes (Life Technologies) for each gene. Amplified products was normalized to housekeeping gene, ama-1 (RNA polymerase II) after determining fold difference using the comparative 2^−ΔΔct method. The following probes were used: ama-1 (Assay ID: Ce2462269_m1), ets-7 (Ce02477624_g1), F13D12.6 (Ce02439540_m1), siah-1 (Assay ID: Ce02462269_m1), and sma-4 (Assay ID: Ce202447346_1).

## NCc1ccccc1O [SA, salicylamine]
N2 WT C. elegans [1]; 100 μM SA, p<0.01
  decrease in F3-IsoP production: 29%
N2 WT C. elegans [1]; 500 μM SA, p<0.005
  decrease in F3-IsoP levels: 44%
N2 WT C. elegans [2]; 500 μM SA, Day 15 WT N2
  increase in ets-7 messenger RNA level: 32%
N2 WT C. elegans [2]; Day 15 WT N2, SA administration
  increase in ets-7 messenger RNA level: 25%
N2 WT C. elegans [2]; Day 15 WT N2
  decrease in siah-1 messenger RNA level: ~25%
  decrease in sma-4 messenger RNA level: ~25%
  increase in F13D12.6 messenger RNA level: ~25%
